Test results reported in PubChem BioAssay AID2842 (Southern Research Institute, 2010).
≈ marks a conversion by molar mass, not a printed value.

system: M. tuberculosis H37Rv growth inhibition; assay: Mycobacterium tuberculosis H37Rv growth inhibition, putative kinase inhibitor library, confirmatory dose response (AID 2842);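 also: bacteria incubated one week before Alamar blue readout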

Compared with O=C(Cc1ccc(-c2ccccc2)cc1)Nc1nnc2n1CCS2, COc1ccccc1-c1nnc(NC(=O)c2ccc(-c3ccccc3)cc2)o1 is 9.1-fold lower in IC90: 13.5 µg/mL (≈ 40.2 µM) for the first, 1.48 µg/mL (≈ 3.98 µM) for the second.

Compared with O=C(Nc1cccc(C(F)(F)F)c1)NC1CC(=O)N(c2cccc(F)c2)C1 (stereo not drawn), CC1=C(C(=O)Nc2cccc(Cl)c2)C(c2ccc(Br)cc2)NC(=O)N1 (stereo not drawn) is 2.4-fold higher in IC90: 8.52 µg/mL (≈ 22.3 µM) for the first, 20.3 µg/mL (≈ 48.1 µM) for the second.

Compared with CC1Cc2cc(-c3nn(-c4ccccc4)cc3/C=C3\SC(=S)NC3=O)ccc2O1 (stereo not drawn), CCc1ccc(-c2nnc3c4cc5c(cc4n(Cc4ccccc4F)cc2-3)OCCO5)cc1 is 3.5-fold higher in IC90: 1.79 µg/mL (≈ 4.27 µM) for the first, 6.34 µg/mL (≈ 14.4 µM) for the second.

Compared with O=C(Nc1ncc(Cc2ccc(F)cc2)s1)c1cccc(-n2cnnn2)c1, O=C(Nc1nnc(-c2ccncc2)o1)c1ccc(F)cc1 is 3.2-fold lower in IC90: 10.2 µg/mL (≈ 26.7 µM) for the first, 3.23 µg/mL (≈ 11.4 µM) for the second.

Compared with Cc1cccc(C(=O)Nc2nnc(-c3cc(C)ccc3C)o2)c1, Cc1ccc(C)c(-c2nnc(NC(=O)c3ccccc3)o2)c1 is 7.2-fold higher in IC90: 3.39 µg/mL (≈ 11 µM) for the first, 24.5 µg/mL (≈ 83.7 µM) for the second.

Going from O=C(Nc1nc(-c2nc3ccccc3s2)cs1)C1COc2ccccc2O1 (stereo not drawn) to Cc1ccc2nc(NNC(=O)c3nc4ccccc4s3)sc2c1, the IC90 falls from 26.8 µg/mL (≈ 67.8 µM) to 6.73 µg/mL (≈ 19.8 µM) (4-fold).

Going from Clc1ccc(Cn2nnc3c(SCc4cccnc4)ncnc32)cc1 to OC(CNCc1ccco1)Cn1c2ccc(Cl)cc2c2cc(Cl)ccc21 (stereo not drawn), the IC90 falls from 13.4 µg/mL (≈ 36.3 µM) to 1.71 µg/mL (≈ 4.39 µM) (7.8-fold).

First: O=C(Cc1cccc2ccccc12)Nc1nnc(-c2ccc(F)cc2)o1
Second: COc1ccc(-c2nnc(NC(=O)c3cccc(C)c3)o2)cc1
The IC90 of the first is 3.9-fold lower: 22.4 µg/mL (≈ 64.4 µM) for the first, 87.7 µg/mL (≈ 283 µM) for the second.

First: Cc1nc2ccccc2c(=O)n1-c1cccc(NC(=O)c2cc([N+](=O)[O-])cc([N+](=O)[O-])c2)c1
Second: O=C(Nc1nnc(-c2cccs2)o1)c1cc(-c2ccccc2)nc2ccccc12
The IC90 of the first is 52-fold higher: 27.8 µg/mL (≈ 62.5 µM) for the first, 0.53 µg/mL (≈ 1.33 µM) for the second.

Compared with O=C(Nc1nnc(-c2ccc(Br)cc2)o1)C1=COCCO1, O=C(Nc1nnc(-c2ccccc2Cl)o1)C1=COCCO1 is 5.8-fold lower in IC90: 24.9 µg/mL (≈ 70.8 µM) for the first, 4.3 µg/mL (≈ 14 µM) for the second.

Going from COc1ccc(O)c(/C=N/NC(=O)c2ccncc2)c1 to COc1ccc2nc(NNC(=O)c3cccc(F)c3)sc2c1, the IC90 rises from 0.82 µg/mL (≈ 3.02 µM) to 15.8 µg/mL (≈ 49.8 µM) (19-fold).

Going from Cc1ccc(-c2nnc(NC(=O)c3ccccc3Br)o2)c(C)c1 to Cc1ccc(-c2nnc(NC(=O)c3ccc(Br)cc3)o2)c(C)c1, the IC90 rises from 0.27 µg/mL (≈ 0.725 µM) to 52.2 µg/mL (≈ 140 µM) (190-fold).

Going from O=C(COc1ccc(Cl)cc1)N1CCN(c2ccc(N3CCCCC3)nn2)CC1 to O=C(Nc1nnc(-c2cc(Cl)ccc2Cl)o1)c1ccc(S(=O)(=O)N2CCCC2)cc1, the IC90 rises from 14.3 µg/mL (≈ 34.3 µM) to 25.6 µg/mL (≈ 54.8 µM) (1.8-fold).

First: Cc1ccc(-c2[nH]c3ccccc3c2SCCNC(=O)c2cc3ccccc3oc2=O)cc1
Second: Cc1c(C#N)c(N)nc(SCC(=O)c2cc3ccccc3oc2=O)c1C#N
The IC90 of the first is 9.5-fold higher: 4 µg/mL (≈ 8.8 µM) for the first, 0.42 µg/mL (≈ 1.12 µM) for the second.

Going from O=C(Nc1nnc(-c2cc(Cl)ccc2Cl)o1)c1ccccc1Br to O=C(Nc1nnc(-c2cc(Cl)ccc2Cl)o1)c1cccc(Cl)c1, the IC90 rises from 1.6 µg/mL (≈ 3.87 µM) to 31.7 µg/mL (≈ 86.1 µM) (20-fold).

First: Cc1cc(Nc2ccc(C)c(C)c2)n2ncc(-c3ccccc3)c2n1
Second: COc1ccccc1-c1cnn2c(Nc3ccc(C)c(C)c3)cc(C)nc12
The IC90 of the first is 4.2-fold lower: 3.44 µg/mL (≈ 10.5 µM) for the first, 14.4 µg/mL (≈ 40.3 µM) for the second.

Compared with NC(=O)c1c(NC(=O)c2ccc([N+](=O)[O-])s2)sc2c1CCN(Cc1ccccc1)C2, CC(=O)N1CCc2c(sc(NC(=O)c3ccc(C)c(C)c3)c2C(N)=O)C1 is 7.4-fold higher in IC90: 0.46 µg/mL (≈ 1.04 µM) for the first, 3.4 µg/mL (≈ 9.15 µM) for the second.

First: CSc1nnc(C)c(=O)n1COC(=O)c1ccc2ccccc2c1
Second: COC(=O)c1ccc(NC(=O)CSc2nc(-c3ccccc3C)ns2)cc1
The IC90 of the first is 4.3-fold higher: 3.38 µg/mL (≈ 9.9 µM) for the first, 0.79 µg/mL (≈ 1.98 µM) for the second.

NC(=O)c1c(Nc2nc3ccc(F)cc3s2)sc2c1CCCC2 and CC1CCc2c(sc(Nc3nc4ccc(F)cc4s3)c2C(N)=O)C1 (stereo not drawn) are within 1.5-fold of each other in IC90: 51.3 µg/mL (≈ 148 µM) for the first, 35.8 µg/mL (≈ 99 µM) for the second.

First: COc1ccc2nc(Nc3nc(-c4cccs4)cs3)sc2c1
Second: CCOC(=O)c1sc(Nc2nc3ccc(OC)cc3s2)cc1C
The IC90 of the first is 2.2-fold lower: 37.8 µg/mL (≈ 109 µM) for the first, 83.8 µg/mL (≈ 240 µM) for the second.

Going from COc1cccc(C(=O)Nc2nc3c(s2)CC(C)CC3)c1 (stereo not drawn) to COc1ccc(C(=O)NNc2nc3cc(C)cc(C)c3s2)cc1, the IC90 rises from 14.1 µg/mL (≈ 46.7 µM) to 38.8 µg/mL (≈ 118 µM) (2.8-fold).

Going from CCOC(=O)c1c(NC(=O)CCl)sc2c1CCCC2 to CCOC(=O)c1c(NC(=O)/C=C/C(N)=O)sc2c1CCCC2, the IC90 falls from 29.8 µg/mL (≈ 98.8 µM) to 6.76 µg/mL (≈ 21 µM) (4.4-fold).

Going from CCOC(=O)c1c(NC(=O)c2ccccc2Br)sc2c1CC(C)(C)NC2(C)C to CCCCC(=O)Nc1nc(-c2ccccc2)c(C(C)=O)s1, the IC90 rises from 8.85 µg/mL (≈ 19 µM) to 13.7 µg/mL (≈ 45.4 µM) (1.5-fold).

Going from O=C(Nc1ccc(F)cc1)Nc1nc(C(=O)N2CCN(c3ccc(F)cc3)CC2)cs1 to O=C(Cc1ccc(F)cc1)N(CCCn1ccnc1)c1nc2ccc(F)cc2s1, the IC90 falls from 7.09 µg/mL (≈ 16 µM) to 3.39 µg/mL (≈ 8.22 µM) (2.1-fold).

First: O=C(NCCCSc1nc2ccccc2o1)Nc1ncccn1
Second: Cc1ccccc1C(=O)Nc1nnc(-c2cccnc2)o1
The IC90 of the first is 2-fold lower: 25.1 µg/mL (≈ 76.1 µM) for the first, 50.1 µg/mL (≈ 179 µM) for the second.

Compared with COc1ccc(OC)c(Nc2nc(NCCN(C)C)nc3c2cnn3-c2ccccc2)c1, COc1ccc(NC(=O)c2cccc3nc4ccccc4nc23)c(OC)c1 is 1.8-fold lower in IC90: 7.29 µg/mL (≈ 16.8 µM) for the first, 4.07 µg/mL (≈ 11.3 µM) for the second.

First: O=C(Nc1nnc(C2=COCCO2)o1)c1ccc(Oc2ccccc2)cc1
Second: COc1ccccc1-c1nnc(NC(=O)c2ccc3c(c2)CCCC3)o1
The IC90 of the first is 2.1-fold higher: 16.8 µg/mL (≈ 46 µM) for the first, 8.04 µg/mL (≈ 23 µM) for the second.

Going from O=C(c1ccco1)N(CCCn1ccnc1)c1nc2ccc(Br)cc2s1 to COc1cccc(C(=O)N(CCCn2ccnc2)c2nc3ccc(C)cc3s2)c1OC, the IC90 rises from 0.74 µg/mL (≈ 1.72 µM) to 2.63 µg/mL (≈ 6.02 µM) (3.6-fold).

Going from O=C(Nc1nnc(-c2ccncc2)o1)c1cc(Cl)ccc1Cl to Cc1ccc(C)c(-c2nnc(NC(=O)c3ccc(Cl)cc3Cl)o2)c1, the IC90 falls from 6.58 µg/mL (≈ 19.6 µM) to 2.21 µg/mL (≈ 6.1 µM) (3-fold).

O=C1CN(C(=O)c2cc(Cl)ccc2Cl)C(c2ccccc2)c2cc(Cl)ccc2N1 (stereo not drawn) and Oc1cc(OCc2ccccc2Cl)ccc1-c1[nH]ncc1-c1ccccc1 are within 1.5-fold of each other in IC90: 6.59 µg/mL (≈ 14.8 µM) for the first, 7.69 µg/mL (≈ 20.4 µM) for the second.

Compared with CC(=O)Nc1ccc2nc(Nc3nc4ccc(Cl)cc4s3)sc2c1, COc1cccc2sc(Nc3nc4c(F)cccc4s3)nc12 is 1.6-fold higher in IC90: 8.93 µg/mL (≈ 23.8 µM) for the first, 14.5 µg/mL (≈ 43.6 µM) for the second.

Going from Cc1ccc2c(c1)NC(=O)c1cc(NS(=O)(=O)c3ccc4c(c3)OCCO4)ccc1O2 to COc1ccc(-c2nnc3c4cc5c(cc4n(Cc4ccc(C)cc4)cc2-3)OCCO5)cc1, the IC90 falls from 17.5 µg/mL (≈ 39.9 µM) to 5.09 µg/mL (≈ 11.6 µM) (3.4-fold).

Going from CC(C)(C)/C(O)=C(/C#N)c1nc2ccccc2[nH]1 to Cc1c(C)n2c3c(=O)[nH]c(=O)n(C)c3nc2n1-c1ccccc1O, the IC90 falls from 16.6 µg/mL (≈ 68.6 µM) to 0.75 µg/mL (≈ 2.31 µM) (22-fold).

Compared with O=C(Nc1nnc(-c2cc(Cl)ccc2Cl)o1)c1ccc2c(c1)CCCC2, O=C(Nc1nnc(-c2ccc3c(c2)CCCC3)o1)c1ccc(Cl)cc1Cl is 28-fold lower in IC90: 25.8 µg/mL (≈ 66.5 µM) for the first, 0.91 µg/mL (≈ 2.34 µM) for the second.

Going from CSc1ccccc1-c1nnc(NC(=O)c2cc(Cl)sc2Cl)o1 to Cc1ccccc1C(=O)Nc1nnc(-c2ccco2)o1, the IC90 falls from 11.7 µg/mL (≈ 30.2 µM) to 1.69 µg/mL (≈ 6.28 µM) (6.9-fold).

Cc1c(Cl)ccc2sc(N(CCCn3ccnc3)C(=O)COc3ccccc3)nc12 and O=C(c1cccs1)N(CCCn1ccnc1)c1nc2c(F)cc(F)cc2s1 are within 1.5-fold of each other in IC90: 3.05 µg/mL (≈ 6.92 µM) for the first, 2.38 µg/mL (≈ 5.88 µM) for the second.

First: COc1cccc(/C=N/Nc2nncc(=O)[nH]2)c1O
Second: COc1ccc(C(=O)Nc2nnc(-c3cc(C)ccc3C)o2)c(OC)c1
The IC90 of the first is 31-fold lower: 0.43 µg/mL (≈ 1.65 µM) for the first, 13.4 µg/mL (≈ 38 µM) for the second.

Cc1ccc(Cl)cc1N1CCN(CC(O)COc2ccccc2[N+](=O)[O-])CC1 (stereo not drawn) and CCCCOc1cccc(C(=O)Nc2nnc(-c3cc(Cl)ccc3Cl)o2)c1 are within 1.5-fold of each other in IC90: 13 µg/mL (≈ 32.1 µM) for the first, 12.9 µg/mL (≈ 31.8 µM) for the second.

CCc1ccc(-c2nnc3c4cc5c(cc4n(Cc4ccc(OC)cc4)cc2-3)OCCO5)cc1 and COc1ccc(Nc2nc(Nc3ccc(C)c(C)c3)nc3nccnc23)cc1 are within 1.5-fold of each other in IC90: 5.37 µg/mL (≈ 11.9 µM) for the first, 3.93 µg/mL (≈ 10.6 µM) for the second.

First: COC(=O)COc1cccc(/C=C2\Oc3cc(OC)ccc3C2=O)c1
Second: CCOc1ccc2c(c1)O/C(=C\c1cccc(OCC(=O)OC)c1)C2=O
The IC90 of the first is 10-fold higher: 17.3 µg/mL (≈ 50.7 µM) for the first, 1.66 µg/mL (≈ 4.68 µM) for the second.

O=C(CCc1ccccc1)Nc1nnc(-c2ccc(Cl)s2)o1 and N#Cc1ccc(C(=O)Nc2nnc(-c3ccc4c(c3)CCCC4)o2)cc1 are within 1.5-fold of each other in IC90: 2.27 µg/mL (≈ 6.8 µM) for the first, 1.71 µg/mL (≈ 4.97 µM) for the second.

With Oc1ccc2ccccc2c1N=Nc1nn[nH]n1 the IC90 was < 0.2 µg/mL.
